These are literature values, as cited in patent US20130122099A1, “POLYETHYLENE GLYCOL-COATED SODIUM CARBONATE AS A PHARMACEUTICAL EXCIPIENT AND COMPOSITIONS PRODUCED FROM THE SAME” (priority 2008, published 2013).

Conditions in the first data set: not given
On to `COc1cc(N)c(Cl)cc1C(=O)NC1CCN(CCCOc2ccc(F)cc2)CC1OC` (stereo not shown) [Cisapride], for which the pKa (usually the pH at which an ionisable group is half protonated) is listed as 7.83. Regarding `CC(C)(C)NC[C@H](O)COc1nsnc1N1CCOCC1` [Timolol], the pKa was 9.2. `C=CCN1CC[C@]23c4c5ccc(O)c4O[C@H]2C(=O)CC[C@@]3(O)[C@H]1C5` [Naloxone]: the pKa is 7.82. Regarding `CC[C@@H]1C(=O)OC[C@@H]1Cc1cncn1C` [Pilocarpine], the pKa is on record as 6.6. In the case of `c1ccc(CN(CC2=NCCN2)c2ccccc2)cc1` [antazoline], the pKa is 7.2. Take `CN1CCN2c3ncccc3Cc3ccccc3C2C1` (stereo not shown) [Mirtazapine]: the pKa is on record as 7.7.

For `O=C1NCN(c2ccccc2)C12CCN(CCCC(c1ccc(F)cc1)c1ccc(F)cc1)CC2` [fluspirilene], the pKa is given as 7.32. In the case of `Cc1ccnc(NS(=O)(=O)c2ccc(N)cc2)n1` [Sulfamerazine], the pKa is given as 8.0.

For the compound `CCn1cc(C(=O)O)c(=O)c2cc(F)c(N3CCNCC3)cc21` [norfloxacin], the pKa is on record as 8.75. Consider `CN(C)CCC=C1c2ccccc2COc2ccccc21` [Doxepin], for which the pKa is 8.2.

For `CN(C)CCOC(=O)C(c1ccccc1)C1(O)CCCC1` (stereo not shown) [cyclopentolate], the pKa was 7.9.

Regarding `N#Cc1ccc2c(c1)N(CCCN1CCC(O)CC1)c1ccccc1S2` [Periciazine], the pKa is recorded as 8.3. For the compound `CCC1(C)CC(=O)NC1=O` (stereo not shown) [ethosuximide], the pKa was 9.3.

For the compound `O=C1CC2(CCCC2)CC(=O)N1CCCCN1CCN(c2ncccn2)CC1` [Buspirone], the pKa is recorded as 7.2. Take `CN[C@H]1CC[C@@H](c2ccc(Cl)c(Cl)c2)c2ccccc21` [Sertraline]: the pKa is recorded as 9.4. Consider `NS(=O)(=O)c1cc2c(cc1C(F)(F)F)NCNS2(=O)=O` [hydroflumethiazide], for which the pKa is on record as 8.9. Consider `CCN(CC)CCCC(C)Nc1cc(OC)cc2cccnc12` (stereo not shown) [Pamaquine], for which the pKa was 8.7. In the case of `CN1CCCCC1CCN1c2ccccc2Sc2ccc([S+](C)[O-])cc21` (stereo not shown) [Mesoridazine], the pKa is listed as 8.2. For the compound `CN1C(=O)CC(c2ccccc2)C1=O` (stereo not shown) [phensuximide], the pKa was 9.2. On to `COc1cccc2c1C(=O)c1c(O)c3c(c(O)c1C2=O)C[C@@](O)(C(C)=O)C[C@@H]3O[C@H]1C[C@H](N)[C@H](O)[C@H](C)O1` [daunomycin], for which the pKa is recorded as 8.2.

Take `CN1C2CCCC1CC(NC(=O)c1nn(C)c3ccccc13)C2` (stereo not shown) [Granisetron]: the pKa was 9.4. For `COc1ccc(CN(CCN(C)C)c2ccccn2)cc1` [mepyramine], the pKa is listed as 8.9. As to `CN1CCN(C(c2ccccc2)c2ccccc2)CC1` [Cyclizine], the pKa was 7.7.

As to `CNCCC(Oc1ccc(C(F)(F)F)cc1)c1ccccc1` (stereo not shown) [Fluoxetine], the pKa was 8.7. `O=C1CN(/N=C/c2ccc(-c3ccc([N+](=O)[O-])cc3)o2)C(O)=N1` [dantrolene]: the pKa is given as 7.5. On to `CC1(C)S[C@@H]2[C@H](NC(=O)[C@H](N)c3ccc(O)cc3)C(=O)N2[C@H]1C(=O)O` [amoxicillin], for which the pKa is listed as 7.4. `CC(CCc1ccccc1)NCC(O)c1ccc(O)c(C(N)=O)c1` (stereo not shown) [Labetalol]: the pKa is given as 8.7. Turning to `OC(CNCC(O)C1CCc2cc(F)ccc2O1)C1CCc2cc(F)ccc2O1` (stereo not shown) [Nebivolol], the pKa is recorded as 8.6. In the case of `CN1CCC(=C2c3ccccc3CC(=O)c3sccc32)CC1` [Ketotifen], the pKa is 8.75. Consider `COc1ccc2c(c1OC)C(=O)O[C@@H]2[C@H]1c2c(cc3c(c2OC)OCO3)CCN1C` [Noscapine], for which the pKa is reported as 7.8. Regarding `CC(=O)/N=c1/sc(S(N)(=O)=O)nn1C` [Methazolamide], the pKa was 7.3. Turning to `O=c1[nH]c(=O)n([C@H]2C[C@H](O)[C@@H](CO)O2)cc1I` [Idoxuridine], the pKa was 8.3. Regarding `OCCOCCN1CCN(C(c2ccccc2)c2ccc(Cl)cc2)CC1` (stereo not shown) [hydroxyzine], the pKa is reported as 7.1. In the case of `CN1CCN(C(c2ccccc2)c2ccc(Cl)cc2)CC1` (stereo not shown) [chlorcyclizine], the pKa is 9.65.

`CCC1(c2ccccc2)NC(=O)N(C)C1=O` (stereo not shown) [mephenytoin]: the pKa is recorded as 8.33. `Clc1ccc2nsnc2c1NC1=NCCN1` [Tizanidine]: the pKa is on record as 9.0.

`Cc1cc(C)nc(NS(=O)(=O)c2ccc(N)cc2)n1` [Sulfamethazine]: the pKa is 7.4. Take `CCC[C@@H]1C[C@@H](C(=O)N[C@@H]([C@H]2O[C@H](SC)[C@H](O)[C@@H](O)[C@H]2O)[C@@H](C)O)N(C)C1` [lincomycin]: the pKa was 7.5. For `CN1CCN2c3ccccc3Cc3ccccc3C2C1` (stereo not shown) [Mianserine], the pKa was 8.3. Turning to `CCN(CC)C(=O)N[C@H]1C[C@@H]2c3cccc4[nH]cc(c34)C[C@H]2N(C)C1` [Terguride], the pKa is 7.2. As for `Cc1nccn1CC1CCc2c(c3ccccc3n2C)C1=O` (stereo not shown) [Ondansetron], the pKa was 7.7. Consider `OC1(c2ccc(Cl)c(C(F)(F)F)c2)CCN(CCCC(c2ccc(F)cc2)c2ccc(F)cc2)CC1` [penfluridol], for which the pKa is reported as 8.0.

As to `OCCN1CCN(CCCN2c3ccccc3Sc3ccc(Cl)cc32)CC1` [Perphenazine], the pKa was 7.94.

Consider `Cc1ccc2c(c1)c1c3n2CCNC3CCC1` (stereo not shown) [Pirlindole], for which the pKa is on record as 7.7. Take `CCCCOc1cc(C(=O)NCCN(CC)CC)c2ccccc2n1` [Dibucaine]: the pKa was 8.5.

Still in this data set, the particulars now being: listed as daunorubicin.
On to `COc1cccc2c1C(=O)c1c(O)c3c(c(O)c1C2=O)C[C@@](O)(C(C)=O)C[C@@H]3O[C@H]1C[C@H](N)[C@H](O)[C@H](C)O1` [daunomycin], for which the pKa is recorded as 8.25.
